Test results taken from ChEMBL document CHEMBL1157539, “Thousands of chemical starting points for antimalarial lead identification” (Nature, 2010).

These compounds were tested on Plasmodium falciparum (assay: GSK_TCMDC: Inhibition of Plasmodium falciparum 3D7 in whole erythrocytes, using parasite LDH activity as an index of growth.). Conditions: Plasmodium falciparum, 3D7.
Assay type: functional, organism-based

SMILES | XC50 [nM]
CNc1nc(N/N=C/c2cc([N+](=O)[O-])c(Cl)cc2Cl)nc(Nc2cccc(C(F)(F)F)c2)n1 | 729
CCC(C)NC(=O)Nc1cccc(-c2cccc(-c3nc4cccc(C)c4[nH]3)c2)c1 (stereo not drawn) | 809
Cn1cc(C(=O)Nc2cccc(-c3cccc(-c4nc5ccccc5[nH]4)c3)c2)n(C)c1=O | 715
Cc1cccc(-c2nn(-c3ccccc3)cc2C(=O)Nc2nnc(C)o2)c1 | 1160
CCCc1ccc(C(=O)N2C(c3nccs3)C(C(N)=O)CC2(CC(C)C)C(=O)O)cc1 (stereo not drawn) | 156
Cc1nn(CC(C)C)c2sc(C(=O)Nc3nc(-c4ccccn4)cs3)cc12 | 961
O=C(Nc1cc(Cl)cc(Cl)c1)Nc1ccnc2ccccc12 | 745
CN(C)CC(=O)Nc1ccc(Nc2nccc(NCC(O)c3ccccc3)n2)cc1 (stereo not drawn) | 973
CN(C)c1ccc(OCCCCCCOc2ccccc2)cc1 | 496
Cc1cc(OCCCNC(=N)c2ccc3ccccc3c2)c(C(C)C)cc1Cl | 973
COc1ccc2c(c1C1CCN(CCCCNC(=O)c3ccc(-c4ccc(Cl)cn4)cc3)CC1)CCCC2 | 1020
CN1CCN(c2ccnc3ccc(NC(=O)Cc4ccc(Br)c5ccccc45)cc23)CC1 | 807
COc1cccc(-c2cnc(-c3ccncc3)nc2C2CCN(Cc3ccc(NC(C)=O)cc3)CC2)c1 | 1500
CC(=O)c1ccc(-n2ccnc2)cc1 | 852
O=c1cc(NCCCNCc2sc(Br)c(Br)c2Br)[nH]c2ccccc12 | 1010
CC(=O)Nc1ccc(C(=O)Nc2cccc(-c3ccc(-c4nc5ccccc5[nH]4)s3)c2)cn1 | 180
Cc1noc(C)c1-c1ccc2c(Nc3ccccc3C(C)(C)C)c(C(=O)NCc3ccc(OC(C)C)cc3)cnc2c1 | 908
O=C(Nc1ccc(-c2nc3ccccc3[nH]2)cc1)C1CCN(Cc2cccc(F)c2F)CC1 | 1100
CC(Cc1ccc(NC(=O)COc2ccc(CC(C)NCCc3cccc(Cl)c3)cc2)cc1)NCCc1cccc(Cl)c1 (stereo not drawn) | 84.3
NOCCCOc1ccc(Cl)cc1 | 574
CCC1(CC)NC(N)=NC(=N)N1OCc1ccc(Cl)c(Cl)c1 | 58.5
O=C(C=Cc1ccc(-c2ccccc2)cc1)N1CCC(CCN2CCC(c3c[nH]c4ccccc34)CC2)CC1 | 1120
CCCCCC(C)(C)NC[C@@H](O)[C@H](Cc1ccccc1)NC(=O)c1cc(NCC)cc(N2CCCC2=O)c1 | 674
Cc1cc(NCCCCCCN)nc(Nc2ccc(Cl)cc2)n1 | 448
Cn1cncc1C(=O)Nc1cccc(-c2cccc(-c3nc4ccccc4[nH]3)c2)c1 | 635

SMILES | XC50 [nM]
CCCC(C)Nc1nc(C)cc(N[C@@H](CC(C)C)C(=O)Nc2ccc(OC)cc2)n1 (stereo partly drawn) | 866
N#Cc1ccc(C=CC(=O)NC2CCC(CCN3CCc4ccc(-c5cnccn5)cc4CC3)CC2)cc1 (stereo not drawn) | 613
COc1ccc(S(=O)(=O)NC2CCN(CCCOc3ccnc4cc(Cl)ccc34)C2)cc1OC (stereo not drawn) | 1050
CN1CCN(c2ccnc3ccc(NC(=O)Nc4ccc5ccccc5c4)cc23)CC1 | 76.6
O=C(Nc1ccccc1)N(Cc1cccc(-c2cccc(CNCCc3ccccc3)c2)c1)C1CCN(Cc2ccccc2)CC1 | 307
CN1CCN(Cc2ccc(-c3ccc4c(Nc5ccc(Oc6ccccc6)cc5)ccnc4c3)o2)CC1 | 177
Nn1c(=O)oc2ccc(Cl)cc2c1=O | 187
O=C(/C=C/c1ccc(Cl)c(Cl)c1)NC1CCC(CN2CCC(c3nc4cc(O)ccc4[nH]3)CC2)CC1 (stereo not drawn) | 241
Cc1ncsc1CCN1C(=O)CC2(C1=O)C(=O)N(Cc1ccccc1)c1ccc(Cl)cc12 (stereo not drawn) | 984
Cc1cccc2[nH]c(-c3cc(-c4cccc(Cl)c4)cnc3N)nc12 | 124
c1ccc2c(c1)CN(Cc1ccsc1)CC1(CCN(Cc3c[nH]c4cnccc34)CC1)O2 | 1150
c1cc(CN2CCN(c3ccncc3)CC2)cc(-c2ccc(-c3nc4ccccc4[nH]3)s2)c1 | 148
CCNc1cc(C(=O)NC(Cc2ccccc2)C(O)CNC2CCSCC2)cc(N2CCCC2=O)c1 (stereo not drawn) | 133
CCCCCCN1CCN(Cc2cccc(NC(=O)c3cc4ccccc4o3)c2)CC1 | 909
CCCCc1cc(NCc2ccncc2)nc(Nc2ccc(C)cc2)n1 | 794
COc1cc(Nc2nccc(N3CCC(NC(=O)c4cccc(C#N)c4)C3)n2)cc(OC)c1OC (stereo not drawn) | 992
CN1CCCN(Cc2ccc(-c3ccc(NS(=O)(=O)c4cccc5cccnc45)cc3)cc2)CC1 | 694
CCN(CC)CCCN1CCN(C(=O)c2cccc(-c3noc(C(F)(F)F)n3)c2)CC1 | 154
CC(C)CNCc1ccc(-c2ccccc2CN(C(=O)NCCc2ccccc2)C2CCN(Cc3ccccc3)CC2)cc1 | 878
O=C(Cc1cccc(Cl)c1)Nc1ccc(N2CCC(NCc3ccc4ncccc4c3)CC2)cc1 | 1230
O=C(/C=C/c1ccc(Cl)c(Cl)c1)NC1CCC(CN2CCC(c3c[nH]c4cc(O)ccc34)CC2)CC1 (stereo not drawn) | 813
O=c1cc(NCCCNCc2ccc(Cl)c(Cl)c2)[nH]c2ccc(Cl)cc12 | 344
NC1=NC2(CCCCC2)N(Cc2ccc(Cl)c(Cl)c2)C(N)=N1 | 623
Cc1ccc(C(=O)Nc2ccc(Nc3ccnc4cc(-c5ccccn5)ccc34)cc2O)cc1 | 111
CCCCCc1ccc(NC(=O)Nc2ccc(Cn3ncc(N4CCCNCC4)c(Cl)c3=O)cc2)cc1 | 1140

SMILES | XC50 [nM]
N#Cc1ccc2c(c1)CCN(CCCn1c(-c3ccc4ccccc4c3)nc3ccncc31)CC2 | 198
CCN(CCCN1CCCCC1)c1cc(C)nc(Nc2ccc(OC)cc2)n1 | 621
CCCCCCCC1CCN(C[C@H](O)c2ccnc3ccc(OC)cc23)CC1 | 956
CC(C)(C)c1nn(-c2ccc(Cl)cc2)c2[nH]c(=O)c(CNCc3ccc4c(c3)OCO4)cc12 | 810
O=C(NCCCCN1CCC(c2ccc3c(c2OCc2ccncc2)CCCC3)CC1)c1ccc(NC(=O)c2ccc(Cl)cc2)cc1 | 218
CN1CCN(c2nc(NCCc3ccc(O)cc3)nc(NCc3ccccc3-c3ccc(C(F)(F)F)cc3)n2)CC1 | 971
Oc1ccc2ccccc2c1C=NNc1nc(=Nc2ccccc2)nc(N2CCOCC2)[nH]1 | 885
Cc1cccc2nc(-c3cccc(-c4ccc(NC(=O)Cc5ccccn5)cc4)c3)[nH]c12 | 793
O=C(/C=C/c1ccc2ccccc2c1)NC1CCC(CN2CCC(c3c[nH]c4ccccc34)CC2)CC1 (stereo not drawn) | 727
COc1ccc(NC(=O)Nc2ccc(-c3ccccc3)cc2)cc1Cn1nc(Cl)c(N2CCCNCC2)cc1=O | 364
O=C(CSc1nccn1Cc1ccco1)Nc1cc(C(F)(F)F)ccc1Cl | 822
N#Cc1ccc(CN2CCCN(Cc3cccc(NC(=O)c4ccc(Cl)c(Cl)c4)c3)CC2)cc1 | 850
Nc1ccc2[nH]cc(C3CCN(CCC4CCN(C(=O)/C=C/c5ccc(Cl)c(Cl)c5)CC4)CC3)c2n1 | 737
O=C(NCc1ccc(F)cc1)Nc1ccc(-c2cccc(-c3nc4cc(F)ccc4[nH]3)c2)cc1 | 1120
O=S(=O)(NCCN1CCCC1)c1ccc(-c2ccc(CNCc3ccsc3)cc2)cc1F | 810
Cc1cc(N[C@@H](Cc2ccccc2)C(=O)NC2CCCC2)nc(Nc2ccccc2)n1 | 828
Cc1cccc2nc(-c3ccc(-c4ccc(CN5CCN(CCO)CC5)cc4)cc3)[nH]c12 | 599
CCOC(=O)c1cc(Cl)cc(Cl)c1OCCCON1C(=N)N=C(N)NC1(C)C | 3.2
O=C(NCCCCN1CCN(c2ccc3c(c2)CCC3)CC1)c1ccc(NC(=O)c2ccc(Cl)cc2)cc1 | 677
Cc1ccc(O)c(-c2cc(C(=O)Nc3ccc(S(=O)(=O)N4CCCCCC4)cc3)[nH]n2)c1 | 711
COc1cccc(-c2cc3nc4c(c(NCCCn5ccnc5)n3n2)CCCC4)c1 | 681
Cc1ccc(Cl)cc1N1CCN(CCCNC(=O)C2CCN(c3nc4ccccc4[nH]3)CC2)CC1 | 895
CCc1ccc(S(=O)(=O)Nc2cccc(CCN3CCC(N4CCCCC4)CC3)c2)cc1 | 898
c1cc(-c2ccc(CNCCCn3ccnc3)cc2)cc(-c2nc3ccccc3[nH]2)c1 | 113
CN(C)CCOc1cc(O)c2c(c1)OC(C)(C)C=C2c1cccs1 | 290

SMILES | XC50 [nM]
Cc1cccc2nc(-c3cccc(-c4cccc(CNCCNC(=O)c5ccnn5C)c4)c3)[nH]c12 | 192
CC1(C)NC(N)=NC(=N)N1OCCc1ccc(N)cc1 | 3.2
Cc1cc(OC(C)C(=O)N2CCc3ccccc32)ccc1Cl (stereo not drawn) | 785
OC1(c2ccccc2)CCN(Cc2cccc(-c3c[nH]c4nc(NC5CCCC5)ncc34)c2)C1 (stereo not drawn) | 914
O=C(Nc1ccc(Cl)c(Cl)c1)Nc1ccc2c(c1)CCNCC2 | 532
Cc1cccc2nc(-c3ccc(-c4cccc(NC(=O)NCc5cccc(F)c5)c4)cc3)[nH]c12 | 853
COC(=O)c1cccc(NC(=O)NCCNc2ccnc(Nc3ccc(F)cc3)n2)c1 | 837
CC(C)Nc1cc(C(=O)N[C@@H](Cc2ccccc2)[C@H](O)CNC(C)(C)c2cccc(C(F)(F)F)c2)cc(N2CCCCS2(=O)=O)c1 | 79.4
COc1ccc2nccc([C@@H](O)CN3CCC(NC(=O)/C=C/c4cccc(-c5ccccc5)c4)CC3)c2c1 | 248
Cc1cccc2nc(-c3ccc(-c4ccc(CN5CCCCC5CO)cc4)cc3)[nH]c12 (stereo not drawn) | 808
O=C(Nc1ccc(N2CCN(c3ncccc3C(F)(F)F)CC2)nc1)c1cccs1 | 1190
O=C(NC1CCN(CCCc2ccccc2)CC1)c1ccc(-c2cccc(C(F)(F)F)c2)s1 | 894
Cc1cc(N)nc2ccc(-c3cccc(CN)c3)cc12 | 707
CCOC(=O)c1ccc(NC(=O)Nc2ccc(Cn3ncc(N4CCCNCC4)c(Cl)c3=O)cc2)cc1 | 443
OC(CNc1ccnc(Nc2ccc(Cl)cc2)n1)c1cccc(C(F)(F)F)c1 (stereo not drawn) | 676
CC(O)C1CCCCN1C(=O)c1cccc(-c2cccc(-c3nc4ccccc4[nH]3)c2)c1 (stereo not drawn) | 534
COc1ccc2nccc([C@@H](O)CN3CCC(NCc4nc5c(C#N)cccc5[nH]4)CC3)c2c1 | 999
COc1cc(F)c2ncc(Cl)c([C@H](O)CN3CCC(NCc4cc5c(cn4)OCCO5)CC3)c2c1 | 95.2
CC(C)c1ccc2oc(-c3ccc(NC(=O)c4ccc([N+](=O)[O-])o4)cc3)nc2c1 | 340
NC(=O)c1ccsc1NC(=O)CNC(c1ccccc1)c1ccc(Cl)cc1 (stereo not drawn) | 262
O=C(Nc1ccc(CCNCCCc2ccccc2)cc1)Nc1ccc(Cl)c(Cl)c1 | 273
Cc1cc(NC(c2ccc(Cl)cc2)c2ccc3cccnc3c2O)no1 (stereo not drawn) | 1090
C=C[C@H]1CN(CCCCCCC)CC[C@H]1CC(=O)Nc1cnnc2ccc(OC)cc12 | 529
